According to PMC6255377, “New 1-Aryl-3-Substituted Propanol Derivatives as Antimalarial Agents” (Molecules, 2009):
Counter-ions that a name gives are not always drawn. Like-named read-outs stand apart in the source and are kept apart here.

Tests used:
[1] = test system: P. falciparum 3D7 strain, chloroquine sensitive; test: In vitro antimalarial activity screening (SYBR Green I micromethod); type: cell-based; settings: Plasmodium falciparum, 3D7, 48 h incubation, mean of two experiments in triplicate, read-out: P. falciparum 3D7 IC50
Method: The SYBR^©GreenI-based micromethod was followed for testing the antimalarial activity of the compounds. Erythrocytic stages of P. falciparum 3D7 strain, chloroquine sensitive, were maintained in RPMI 1640 culture medium supplemented with 0.5% Albumax II at 37 °C in an atmosphere with 5% CO2. […] Next, stock solutions of each compound were prepared in DMSO and diluted in RPMI medium in order to obtain concentrations from 10 to 0.01 µg/mL. […] All compounds and controls were placed in triplicate. The plate was incubated under the same conditions. After 48 h, the plate was removed from the incubator and frozen for at least 1 h at -70 °C and then thawed. Finally, 100 µL of SYBR^©GreenI in lysis buffer (0.2 µL/mL) was added per well and shaken for 5 minutes or until no precipitated erythrocytes were observed. The plate was left to stand in the dark for 1 h at room temperature. Fluorescence intensity (FI) for each well was measured. The background of the nonparasitized erythrocytes was subtracted from each well tested.

Row | IC50 ([1]; Table 1) | IC50 ([1]; Table 2) | melting point | SMILES
1 | > 20 µM | – | – | Cc1ccc2cccc(N3CCN(CCC(=O)c4csc5ccccc45)CC3)c2n1 [Compound 5]
2 | – | 18.2 µM | – | Cc1ccc(C(O)CCN2CCN(c3ccccc3O)CC2)c(C)c1 (stereo not drawn) [Compound 46]
3 | 0.9 µM | – | – | OC(CCN1CCN(c2cccc3c2OCCO3)CC1)c1csc2ccc(F)cc12 (stereo not drawn) [Compound 27]
4 | > 20 µM | – | – | O=C(CCN1CCN(c2cccc3ccccc23)CC1)c1csc2ccc(F)cc12 [Compound 1]
5 | > 20 µM | – | – | COc1ccccc1N1CCN(CCC(=O)c2csc3ccc(F)cc23)CC1 [Compound 2]
6 | 3.81 µM | – | – | OC(CCN1CCN(c2cccc3[nH]ccc23)CC1)c1csc2ccc(F)cc12 (stereo not drawn) [Compound 18]
7 | – | – | 121 to 123 °C | O=C(CCN1CCCN(c2ccc([N+](=O)[O-])cc2)CC1)c1csc2ccccc12 (as salt: hydrochloride) [Compound 9, 1-(benzo[b]thiophen-3-yl)-3-[4-(4-nitrophenyl)-1,4-diazepan-1-yl]propan-1-one]
8 | 1 µM | – | 153 to 155 °C | O=[N+]([O-])c1ccc(N2CCC(NCCC(O)c3csc4ccccc34)CC2)cc1 (stereo not drawn) [Compound 33, 1-(Benzo[b]thiophen-3-yl)-3-(1-(4-nitrophenyl)piperidin-4-ylamino)propan-1-ol]
9 | – | > 20 µM | – | COc1ccccc1N1CCN(CCC(O)c2ccccc2)CC1 (stereo not drawn) [Compound 39]
10 | – | – | 135 to 137 °C | COc1cccc(N2CCN(CCC(O)c3csc4ccc(F)cc34)CC2)c1 (stereo not drawn) (as salt: hydrochloride) [Compound 16, 1-(5-fluorobenzo[b]thiophen-3-yl)-3-[4-(3-methoxyphenyl)piperazin-1-yl]propan-1-ol]
11 | > 20 µM | – | 144 to 145 °C | O=C(CCNC1CCN(c2ccc([N+](=O)[O-])cc2)CC1)c1csc2ccccc12 [Compound 8, 1-(Benzo[b]thiophen-3-yl)-3-[1-(4-nitrophenyl)piperidin-4-ylamino]propan-1-one]
12 | – | 16.9 µM | – | COc1ccccc1N1CCN(CCC(O)c2ccc(C)cc2C)CC1 (stereo not drawn) [Compound 43]
13 | > 20 µM | – | – | O=C(CCN1CCN(c2cccc3cccnc23)CC1)c1csc2ccc(F)cc12 [Compound 4]
14 | > 20 µM | – | 98 to 100 °C | O=C(CCN1CC[C@@H](Nc2ccc([N+](=O)[O-])cc2C(F)(F)F)C1)c1csc2ccccc12 [Compound 7, 1-(Benzo[b]thiophen-3-yl)-3-[3-(4-nitro-2-trifluoromethylphenylamino)-(R)-pyrrolidin-1-yl] propan-1-one]
15 | – | – | 181 to 183 °C | O=[N+]([O-])c1ccc([C@@]2(NCCC(O)c3ccc4ccccc4c3)CCNC2)c(C(F)(F)F)c1 (stereo partly drawn) (as salt: hydrochloride) [Compound 45, 1-(2-naphthyl)-3-[3-(4-nitro-2-trifluoromethylphenyl)-(S)-pyrrolidin-3-ylamino]-propan-1-ol]
16 | > 20 µM | – | 145 to 146 °C | O=C(CCN1CCN(c2cnc3ccccc3n2)CC1)c1csc2ccccc12 [Compound 10, 1-(Benzo[b]thiophen-3-yl)-3-[4-(quinoxalin-2-yl)piperazin-1-yl]propan-1-one]
17 | 0.62 µM | – | 155 to 156 °C | OC(CCN1CCN(c2cnc3ccccc3n2)CC1)c1csc2ccccc12 (stereo not drawn) [Compound 35, 1-(Benzo[b]thiophen-3-yl)-3-(4-(quinoxalin-2-yl)piperazin-1-yl)propan-1-ol]
18 | 3.56 µM | – | – | OC(CCN1CCN(c2cccc3c2OCCO3)CC1)c1csc2ccccc12 (stereo not drawn) [Compound 26]
19 | – | 0.83 µM | – | COc1ccccc1N1CCN(CCC(O)c2ccc3ccccc3c2)CC1 (stereo not drawn) [Compound 42]
20 | 3.43 µM | – | 47 to 48 °C | O=[N+]([O-])c1ccc(N2CCCN(CCC(O)c3csc4ccccc34)CC2)cc1 (stereo not drawn) [Compound 34, 1-(Benzo[b]thiophen-3-yl)-3-(4-(4-nitrophenyl)-1,4-diazepan-1-yl)propan-1-ol]
21 | > 20 µM | – | 140 to 141 °C | O=C(CCN1CCN(c2ccc([N+](=O)[O-])cc2C(F)(F)F)CC1)c1csc2ccccc12 [Compound 6, 1-(Benzo[b]thiophen-3-yl)-3-[4-(4-nitro-2-trifluoromethylphenyl)piperazin-1-yl]propan-1-ona]
22 | 5.65 µM | – | – | OC(CCN1CCN(c2ccc(Cl)cc2)CC1)c1csc2ccccc12 (stereo not drawn) [Compound 19]
23 | 2.22 µM | – | – | OC(CCN1CCN(c2ccc3ccccc3n2)CC1)c1csc2ccccc12 (stereo not drawn) [Compound 25]

Row | IC50 ([1]; Table 1) | IC50 ([1]; Table 2) | melting point | SMILES
24 | 1.3 µM | – | – | OC(CCN1CCN(c2cccc3ncccc23)CC1)c1csc2ccccc12 (stereo not drawn) [Compound 24]
25 | – | > 20 µM | – | OC(CCN1CCN(c2ccc(Cl)cc2)CC1)c1ccsc1 (stereo not drawn) [Compound 36]
26 | – | 13 µM | – | OC(CCN1CCN(c2ccc(Cl)cc2)CC1)c1ccccc1 (stereo not drawn) [Compound 37]
27 | 0.68 µM | – | 154 to 155 °C | O=[N+]([O-])c1ccc(N2CCN(CCC(O)c3csc4ccccc34)CC2)c(C(F)(F)F)c1 (stereo not drawn) [Compound 28, 1-(Benzo[b]thiophen-3-yl)-3-[4-(4-nitro-2-trifluoromethylphenyl)piperazin-1-yl]propan-1-ol]
28 | 6.99 µM | – | – | OC(CCN1CCN(c2cccc3[nH]ccc23)CC1)c1csc2ccccc12 (stereo not drawn) [Compound 17]
29 | > 20 µM | – | – | O=C(CCN1CCCN(c2ccc([N+](=O)[O-])cc2)CC1)c1csc2ccccc12 [Compound 9, 1-(benzo[b]thiophen-3-yl)-3-[4-(4-nitrophenyl)-1,4-diazepan-1-yl]propan-1-one]
30 | > 20 µM | – | – | COc1ccccc1N1CCN(CCC(=O)c2csc3ccccc23)CC1 [Compound 3]
31 | 1.67 µM | – | – | COc1cccc(N2CCN(CCC(O)c3csc4ccc(F)cc34)CC2)c1 (stereo not drawn) [Compound 16, 1-(5-fluorobenzo[b]thiophen-3-yl)-3-[4-(3-methoxyphenyl)piperazin-1-yl]propan-1-ol]
32 | – | > 20 µM | 188 to 189 °C | COc1ccccc1N1CCN(CCC(O)c2c[nH]c3ccccc23)CC1 (stereo not drawn) [Compound 41, 1-(3-Indolyl)-3-[4-(2-methoxyphenyl)piperazin-1-yl]propan-1-ol]
33 | – | 9.64 µM | – | COc1ccccc1N1CCN(CCC(O)c2ccc3cc(C)ccc3c2)CC1 (stereo not drawn) [Compound 44, 1-(6-methylnapth-2-yl)-3-[4-(2-methoxyphenyl)piperazin-1-yl]propan-1-ol]
34 | – | – | 116 to 117 °C | COc1ccccc1N1CCN(CCC(O)c2ccc3cc(C)ccc3c2)CC1 (stereo not drawn) (as salt: hydrochloride) [Compound 44, 1-(6-methylnapth-2-yl)-3-[4-(2-methoxyphenyl)piperazin-1-yl]propan-1-ol]
35 | 1.07 µM | – | – | COc1ccccc1N1CCN(CCC(O)c2csc3ccccc23)CC1 (stereo not drawn) [Compound 13]
36 | – | 9.1 µM | – | O=[N+]([O-])c1ccc([C@@]2(NCCC(O)c3ccc4ccccc4c3)CCNC2)c(C(F)(F)F)c1 (stereo partly drawn) [Compound 45, 1-(2-naphthyl)-3-[3-(4-nitro-2-trifluoromethylphenyl)-(S)-pyrrolidin-3-ylamino]-propan-1-ol]
37 | 6.13 µM | – | – | OC(CCN1CCN(c2cccc3ccccc23)CC1)c1csc2ccccc12 (stereo not drawn) [Compound 11]
38 | 0.66 µM | – | – | Cc1ccc2cccc(N3CCN(CCC(O)c4csc5ccccc45)CC3)c2n1 (stereo not drawn) [Compound 22]
39 | – | > 20 µM | 169 to 170 °C | OC(CCN1CCN(c2ccc(Cl)cc2)CC1)c1ccc(-c2ccccc2)cc1 (stereo not drawn) [Compound 38, 1-(4-Phenyl)phenyl-3-[4-(4-chlorophenyl)piperazin-1-yl]propan-1-ol]
40 | 2.15 µM | – | – | OC(CCN1CCN(c2cccc3cccnc23)CC1)c1csc2ccccc12 (stereo not drawn) [Compound 20]
41 | > 20 µM | – | 189 to 190 °C | O=[N+]([O-])c1ccc(N2CCN(CCC(O)c3csc4ccc(F)cc34)CC2)cc1 (stereo not drawn) [Compound 32, 1-(5-Fluorobenzo[b]thiophen-3-yl)-3-[4-(4-nitrophenyl)piperazin-1-yl]propan-1-ol]
42 | 13.7 µM | – | – | Oc1ccccc1N1CCN(CCC(O)c2csc3ccccc23)CC1 (stereo not drawn) [Compound 14]
43 | 0.79 µM | – | – | OC(CCN1CCN(c2cccc3cccnc23)CC1)c1csc2ccc(F)cc12 (stereo not drawn) [Compound 21]
44 | 2.99 µM | – | 48 to 50 °C | O=[N+]([O-])c1ccc(N[C@@H]2CCN(CCC(O)c3csc4ccccc34)C2)c(C(F)(F)F)c1 (stereo partly drawn) [Compound 29, 1-(Benzo[b]thiophen-3-yl)-3-[3-(4-nitro-2-trifluoromethylphenylamino)-(R)-pyrrolidin-1-yl]propan-1-ol]
45 | – | 14.6 µM | 109 to 110 °C | COc1ccccc1N1CCN(CCC(O)c2ccc(-c3ccccc3)cc2)CC1 (stereo not drawn) [Compound 40, 1-(4-Phenyl)phenyl-3-[4-(2-methoxyphenyl)piperazin-1-yl]propan-1-ol]
46 | 0.97 µM | – | 109 to 110 °C | O=[N+]([O-])c1ccc(N2CC[C@H](NCCC(O)c3csc4ccccc34)C2)c(C(F)(F)F)c1 (stereo partly drawn) [Compound 30, 1-(Benzo[b]thiophen-3-yl)-3-[1-(4-nitro-2-trifluoromethylphenyl)-(S)-pyrrolidin-3-ylamino]propan-1-ol]
